Source: article PMC9024338, “Bruceine H Mediates EGFR-TKI Drug Persistence in NSCLC by Notch3-Dependent β-Catenin Activating FOXO3a Signaling” (Frontiers in Oncology, 2022)
Values joined by “and” are separate entries in the source; they are usually repeats but may differ in a detail not shown here. Equal entries are not always repeated. Where two headings read alike, the source gives them in different places.

Assay: Preliminary pharmacokinetics in SD rats
Format: in vivo
Settings: for AUC(0-inf) / AUC(0-t) / clearance / half-life / Cmax / Vd / concentration at 5 min / concentration at 10 min / concentration at 0.25 h / concentration at 0.5 h / concentration at 0.75 h / concentration at 1 h / concentration at 2 h / concentration at 4 h / concentration at 6 h / concentration at 8 h / concentration at 12 h / concentration at 24 h / MRT inf / k el: male, SD, rat, plasma; for Cmax: read-out: Maximum concentration (C max)
Experimental: We administered BH by gavage and intravenous administration to SD rats (male, 200–220 g, n = 6) after they had fasted for 12 h. For oral gavage, the BH was dissolved in DMSO/0.5% CMC-Na (5/95, v/v/), and for intravenous administration, it was dissolved in DMSO/0.9% NaCl (5/95, v/v/), and then the blood samples were collected at intervals to determine the pharmacokinetic (PK) profiles of SD rats.

Structure (SMILES): CC1=CC(=O)[C@@H](O)[C@]2(C)[C@H]3[C@@H](O)[C@H](O)[C@@]4(CO)OC[C@@]35[C@@H](C[C@@H]12)OC(=O)[C@H](O)[C@]54O [BH, Bruceine H]
- Concentration of BH in rat plasma, individual rats No1-No3 (i.v. 2 mg/kg, 5 min, 2 mg/kg): 484.6 ng/mL and 469.6 ng/mL
- Concentration of BH in rat plasma, individual rats No1-No3 (i.v. 2 mg/kg, 10 min, 2 mg/kg): 455.4 ng/mL and 450.6 ng/mL
- Concentration of BH in rat plasma, individual rats No1-No3 (i.v. 2 mg/kg, 0.25 h, 2 mg/kg): 398.5 ng/mL and 384.2 ng/mL
- Concentration of BH in rat plasma, individual rats No1-No3 (i.v. 2 mg/kg, 0.5 h, 2 mg/kg): 245.3 ng/mL and 234.1 ng/mL
- Concentration of BH in rat plasma, individual rats No1-No3 (i.v. 2 mg/kg, 0.75 h, 2 mg/kg): 177.7 ng/mL and 180.4 ng/mL
- Concentration of BH in rat plasma, individual rats No1-No3 (i.v. 2 mg/kg, 1 h, 2 mg/kg): 135.4 ng/mL and 119.6 ng/mL
- Concentration of BH in rat plasma, individual rats No1-No3 (i.v. 2 mg/kg, 2 h, 2 mg/kg): 95.3 ng/mL and 98.5 ng/mL
- Concentration of BH in rat plasma, individual rats No1-No3 (i.v. 2 mg/kg, 4 h, 2 mg/kg): 55.4 ng/mL and 51.2 ng/mL
- Concentration of BH in rat plasma, individual rats No1-No3 (i.v. 2 mg/kg, 6 h, 2 mg/kg): 40.4 ng/mL and 42.1 ng/mL
- Concentration of BH in rat plasma, individual rats No1-No3 (i.v. 2 mg/kg, 8 h, 2 mg/kg): 18.8 ng/mL and 25.4 ng/mL
- Concentration of BH in rat plasma, individual rats No1-No3 (i.v. 2 mg/kg, 12 h, 2 mg/kg): 12.3 ng/mL and 21.3 ng/mL
- Concentration of BH in rat plasma, individual rats No1-No3 (i.v. 2 mg/kg, 24 h, 2 mg/kg): 6.3 ng/mL and 10.2 ng/mL
- AUC(0-inf) (iv, 2 mg/kg, SD rats, 2 mg/kg iv, read-out: AUC0–inf): 1050 ng·h/mL
- AUC(0-t) (iv, 2 mg/kg, SD rats, 2 mg/kg iv, read-out: AUC0–last): 944 ng·h/mL
- clearance (iv, 2 mg/kg, SD rats, 2 mg/kg iv, read-out: Clearance (CL) (converted)): 31.9 mL/min/kg
- half-life (iv, 2 mg/kg, SD rats, 2 mg/kg iv, read-out: Half-life (T 1/2) (converted)): 9.69 h
- Cmax (iv, 2 mg/kg, SD rats, 2 mg/kg iv): 477 ng/mL
- Vd (iv, 2 mg/kg, SD rats, 2 mg/kg iv, read-out: Volume of distribution (V ss)): 26.5 L/kg
- concentration at 5 min (iv, 2 mg/kg, i.v. 2 mg/kg, 5 min, read-out: Concentration of BH in rat plasma, Mean): 477 ng/mL
- concentration at 5 min (iv, 2 mg/kg, i.v. 2 mg/kg, 5 min, read-out: Concentration of BH in rat plasma, individual rats No1-No3): 478 ng/mL
- concentration at 10 min (iv, 2 mg/kg, i.v. 2 mg/kg, 10 min, read-out: Concentration of BH in rat plasma, Mean): 442 ng/mL
- concentration at 10 min (iv, 2 mg/kg, i.v. 2 mg/kg, 10 min, read-out: Concentration of BH in rat plasma, individual rats No1-No3): 420 ng/mL
- concentration at 0.25 h (iv, 2 mg/kg, i.v. 2 mg/kg, 0.25 h, read-out: Concentration of BH in rat plasma, Mean): 384 ng/mL
- concentration at 0.25 h (iv, 2 mg/kg, i.v. 2 mg/kg, 0.25 h, read-out: Concentration of BH in rat plasma, individual rats No1-No3): 371 ng/mL
- concentration at 0.5 h (iv, 2 mg/kg, i.v. 2 mg/kg, 0.5 h, read-out: Concentration of BH in rat plasma, Mean): 236 ng/mL
- concentration at 0.5 h (iv, 2 mg/kg, i.v. 2 mg/kg, 0.5 h, read-out: Concentration of BH in rat plasma, individual rats No1-No3): 228 ng/mL
- concentration at 0.75 h (iv, 2 mg/kg, i.v. 2 mg/kg, 0.75 h, read-out: Concentration of BH in rat plasma, Mean): 177 ng/mL
- concentration at 0.75 h (iv, 2 mg/kg, i.v. 2 mg/kg, 0.75 h, read-out: Concentration of BH in rat plasma, individual rats No1-No3): 172 ng/mL
- concentration at 1 h (iv, 2 mg/kg, i.v. 2 mg/kg, 1 h, read-out: Concentration of BH in rat plasma, Mean): 127 ng/mL
- concentration at 1 h (iv, 2 mg/kg, i.v. 2 mg/kg, 1 h, read-out: Concentration of BH in rat plasma, individual rats No1-No3): 125 ng/mL
- concentration at 2 h (iv, 2 mg/kg, i.v. 2 mg/kg, 2 h, read-out: Concentration of BH in rat plasma, Mean): 99.1 ng/mL
- concentration at 2 h (iv, 2 mg/kg, i.v. 2 mg/kg, 2 h, read-out: Concentration of BH in rat plasma, individual rats No1-No3): 104 ng/mL
- concentration at 4 h (iv, 2 mg/kg, i.v. 2 mg/kg, 4 h, read-out: Concentration of BH in rat plasma, Mean): 54.9 ng/mL
- concentration at 4 h (iv, 2 mg/kg, i.v. 2 mg/kg, 4 h, read-out: Concentration of BH in rat plasma, individual rats No1-No3): 58 ng/mL
- concentration at 6 h (iv, 2 mg/kg, i.v. 2 mg/kg, 6 h, read-out: Concentration of BH in rat plasma, Mean): 40 ng/mL
- concentration at 6 h (iv, 2 mg/kg, i.v. 2 mg/kg, 6 h, read-out: Concentration of BH in rat plasma, individual rats No1-No3): 37.6 ng/mL
- concentration at 8 h (iv, 2 mg/kg, i.v. 2 mg/kg, 8 h, read-out: Concentration of BH in rat plasma, Mean): 24.5 ng/mL
- concentration at 8 h (iv, 2 mg/kg, i.v. 2 mg/kg, 8 h, read-out: Concentration of BH in rat plasma, individual rats No1-No3): 29.2 ng/mL
- concentration at 12 h (iv, 2 mg/kg, i.v. 2 mg/kg, 12 h, read-out: Concentration of BH in rat plasma, Mean): 17.9 ng/mL
- concentration at 12 h (iv, 2 mg/kg, i.v. 2 mg/kg, 12 h, read-out: Concentration of BH in rat plasma, individual rats No1-No3): 20 ng/mL
- concentration at 24 h (iv, 2 mg/kg, i.v. 2 mg/kg, 24 h, read-out: Concentration of BH in rat plasma, Mean): 7.37 ng/mL
- concentration at 24 h (iv, 2 mg/kg, i.v. 2 mg/kg, 24 h, read-out: Concentration of BH in rat plasma, individual rats No1-No3): 5.6 ng/mL
- AUC(0-t) (iv, 2 mg/kg, i.v., read-out: AUC (0-t), Mean): 944 ng·h/mL
- AUC(0-t) (iv, 2 mg/kg, i.v., read-out: AUC (0-t), individual rats No1-No3): 965 ng·h/mL
- AUC(0-inf) (iv, 2 mg/kg, i.v., read-out: AUC (0-∞), individual rats No1-No3): 1020 ng·h/mL
- clearance (iv, 2 mg/kg, i.v., read-out: CLz, Mean (converted)): 31.9 mL/min/kg
- clearance (iv, 2 mg/kg, i.v., read-out: CLz, individual rats No1-No3 (converted)): 32.7 mL/min/kg
- concentration at 24 h (iv, 2 mg/kg, i.v., read-out: C_last, Mean): 7.35 ng/mL
- concentration at 24 h (iv, 2 mg/kg, i.v., read-out: C_last, individual rats No1-No3): 5.6 ng/mL
- MRT inf (iv, 2 mg/kg, i.v., read-out: MRT (0-∞), Mean): 8.44 h
- MRT inf (iv, 2 mg/kg, i.v., read-out: MRT (0-∞), individual rats No1-No3): 6.47 h
- Vd (iv, 2 mg/kg, i.v., read-out: Vz, Mean): 26.5 L/kg
- Vd (iv, 2 mg/kg, i.v., read-out: Vz, individual rats No1-No3): 18.6 L/kg
- half-life (iv, 2 mg/kg, i.v., read-out: t1/2z, Mean (converted)): 9.69 h
- half-life (iv, 2 mg/kg, i.v., read-out: t1/2z, individual rats No1-No3 (converted)): 6.55 h
- k el (iv, 2 mg/kg, i.v., read-out: λz, Mean (converted)): 2.11e-05 s⁻¹
- k el (iv, 2 mg/kg, i.v., read-out: λz, individual rats No1-No3 (converted)): 2.94e-05 s⁻¹
- AUC(0-inf) (po, 10 mg/kg, SD rats, 10 mg/kg po, read-out: AUC0–inf): 976 ng·h/mL
- AUC(0-t) (po, 10 mg/kg, SD rats, 10 mg/kg po, read-out: AUC0–last): 961 ng·h/mL
- half-life (po, 10 mg/kg, SD rats, 10 mg/kg po, read-out: Half-life (T 1/2) (converted)): 3.35 h
- Cmax (po, 10 mg/kg, SD rats, 10 mg/kg po): 147 ng/mL
- concentration at 0.25 h (po, 10 mg/kg, p.o. 10 mg/kg, 0.25 h, read-out: Concentration of BH in rat plasma, Mean): 11.8 ng/mL
- concentration at 0.25 h (po, 10 mg/kg, p.o. 10 mg/kg, 0.25 h, read-out: Concentration of BH in rat plasma, individual rats No1-No3): 13.6 ng/mL
- concentration at 0.5 h (po, 10 mg/kg, p.o. 10 mg/kg, 0.5 h, read-out: Concentration of BH in rat plasma, Mean): 58.1 ng/mL
- concentration at 0.5 h (po, 10 mg/kg, p.o. 10 mg/kg, 0.5 h, read-out: Concentration of BH in rat plasma, individual rats No1-No3): 68.4 ng/mL
- concentration at 0.75 h (po, 10 mg/kg, p.o. 10 mg/kg, 0.75 h, read-out: Concentration of BH in rat plasma, Mean): 104 ng/mL
- concentration at 0.75 h (po, 10 mg/kg, p.o. 10 mg/kg, 0.75 h, read-out: Concentration of BH in rat plasma, individual rats No1-No3): 111 ng/mL
- concentration at 1 h (po, 10 mg/kg, p.o. 10 mg/kg, 1 h, read-out: Concentration of BH in rat plasma, Mean): 147 ng/mL
- concentration at 1 h (po, 10 mg/kg, p.o. 10 mg/kg, 1 h, read-out: Concentration of BH in rat plasma, individual rats No1-No3): 154 ng/mL
- concentration at 2 h (po, 10 mg/kg, p.o. 10 mg/kg, 2 h, read-out: Concentration of BH in rat plasma, Mean): 123 ng/mL
- concentration at 2 h (po, 10 mg/kg, p.o. 10 mg/kg, 2 h, read-out: Concentration of BH in rat plasma, individual rats No1-No3): 130 ng/mL
- concentration at 4 h (po, 10 mg/kg, p.o. 10 mg/kg, 4 h, read-out: Concentration of BH in rat plasma, Mean): 101 ng/mL
- concentration at 4 h (po, 10 mg/kg, p.o. 10 mg/kg, 4 h, read-out: Concentration of BH in rat plasma, individual rats No1-No3): 115 ng/mL
- concentration at 6 h (po, 10 mg/kg, p.o. 10 mg/kg, 6 h, read-out: Concentration of BH in rat plasma, Mean): 80.5 ng/mL
